From US7691833B2, “Compositions and methods for preventing sporadic neoplasia in colon” (Trustees of Dartmouth College, priority 2002, dated 2010)

What was measured:
[1] = tested on: large bowel adenomas; test: Randomized, double-blind, placebo-controlled study of aspirin on occurrence of large bowel adenomas; format: in vivo, humans; details: for Relative Crude Risk (95% CI) / Adjusted Relative Risk (95% CI): versus placebo
From the text: Patients were recruited at nine centers in North America.
By protocol, subjects were to have a complete surveillance colonoscopy 34-40 months after the qualifying examination. At each colonoscopy, the endoscopist recorded the estimated size and location of all polyps and mucosal lesions suspicious for neoplasia as per usual clinical practice. Each lesion was removed and examined histologically at the clinical center and by the study pathologist. Polyps were classified as neoplastic (adenomatous) or non-neoplastic (e.g., hyperplastic) by the study pathologist.
The primary study outcome was the proportion of subjects with one or more colorectal adenomas detected during the period from one year after randomization through the anticipated surveillance follow-up. If a surveillance colonoscopy was not performed during the protocol time window, the last examination at least one year after randomization was taken as the follow-up exam. Pre-specified secondary outcomes were the numbers of large-bowel adenomas and “advanced lesions”: tubulovillous adenomas (25 to 75 percent villous features), villous adenomas (>75 percent villous), large adenomas ([…]), severe dysplasia, or invasive cancer. Separate analyses were also conducted for lesions in the left colorectum (descending colon, sigmoid colon, and rectum) and right colorectum (the remainder of the bowel).

[2] = Serious medical events in the randomized, placebo-controlled aspirin study; details: for Serious Bleeding, Gastrointestinal, no of subjects / Serious Bleeding, Genitourinary, no of subjects: bleeding leading to hospitalization or surgical intervention
Protocol: A multi-center, randomized, double-blind, placebo-controlled study was performed that examined the effects of aspirin alone as well as folate treatment combined with aspirin on the occurrence of large bowel adenomas. The study has a 3-by-2 factorial design, investigating aspirin (placebo, 81 mg/day, or 325 mg/day) and folic acid (placebo or 1 mg/day). Patients were recruited at nine centers in North America. Eligible subjects had at least one of the following: (1) one or more histologically confirmed large-bowel adenomas removed within 3 months prior to recruitment, (2) one or more histologically confirmed large-bowel adenomas removed within 16 months before recruitment and a lifetime history of 2 or more confirmed large-bowel adenomas, or (3) a histologically confirmed large-bowel adenoma at least 1 cm in diameter removed within 16 months before recruitment. […] Eligible subjects were between 21 and 80 years old, in good health, and with anticipated colonoscopic follow-up three years after the qualifying examination. Exclusion criteria included a history of a familial colorectal cancer syndrome, invasive large-bowel cancer, malabsorption syndromes, any condition potentially worsened by supplemental aspirin or folic acid, or any condition commonly treated with aspirin, non-steroidal anti-inflammatory drugs (NSAIDs), or folate (e.g., recurrent arthritis, atherosclerotic vascular disease, folic acid deficiency).
Study coordinators at each center maintained contact with the subjects on a regular basis; interval questionnaires regarding possible side effects and medical events were completed every four months by each subject.
Subjects were regularly counseled regarding avoidance of aspirin and other NSATDs. Lists of products containing aspirin, ibuprofen, or naproxen were provided, and acetaminophen was distributed for treatment of minor febrile illnesses and pain. Every four months, subjects received questionnaires regarding adherence to study treatment; use of medications, over-the-counter drugs and nutritional supplements; and occurrence of symptoms, illnesses, and hospitalizations.
The statistical analysis compared the aspirin treatment groups irrespective of folic acid treatment. Subjects who underwent a follow-up endoscopy at least one year following randomization were included in the analyses. The predefined primary statistical analysis was a 2 degree-of-freedom chi-squared test for a contingency table comparing treatment groups regarding risk of one or more new adenomas. Crude risk ratios and 95 percent confidence intervals were used to compare treatment groups to placebo. Adjusted risk ratios were obtained from log-linear models with age, gender, clinical center, number of lifetime adenomas, and duration of follow-up as covariates. […] Possible modification of treatment effects by baseline characteristics was assessed using interaction terms in the log-linear model. Counts of other clinical endpoints were compared using Fisher's exact test. To compare the effect of aspirin on different types of polyps, a logistic regression model was used with generalized estimating equations (Liang and Zeger Biometrika 1986:13-22) to account for the clustering of multiple endpoints within patients. […] Two-sided P-values <0.05 were considered statistically significant.

[3] = Advanced Lesion, both aspirin groups combined
[4] = Any Adenoma, both aspirin groups combined
[5] = Tubular Adenoma, both aspirin groups combined

## CC(=O)Oc1ccccc1C(=O)O [Aspirin, acetylsalicylic acid]
[1]; 81 mg aspirin
  reduction in risk for advanced lesions: > 40%
  reduction in risk of one or more adenomas: 19%
[1]; 81 mg aspirin, among women
  adjusted risk ratio for the detection of at least one advanced adenoma: 0.18
[1]; 81 mg aspirin, among younger subjects (younger than median age 57 years at randomization)
  adjusted risk ratio for the detection of at least one advanced adenoma: 0.37
[1]; 325 mg aspirin, non-significant
  reduction in risk of one or more adenomas: 4%
[1]; Advanced Lesion, 81 mg/day
  N with adenoma/N followed: 28/366
  N with adenoma/N followed (percent): (7.7%)
  Relative Crude Risk (95% CI): 0.59
[1]; Advanced Lesion, 81 mg/day, adjusted
  Adjusted Relative Risk (95% CI): 0.58
[1]; Advanced Lesion, 325 mg/day
  N with adenoma/N followed: 38/355
  N with adenoma/N followed (percent): (10.7%)
  Relative Crude Risk (95% CI): 0.83
[1]; Advanced Lesion, 325 mg/day, adjusted
  Adjusted Relative Risk (95% CI): 0.83
[1]; [3]
  N with adenoma/N followed: 66/721
  N with adenoma/N followed (percent): (9.2%)
  Relative Crude Risk (95% CI): 0.71
[1]; Advanced Lesion, both aspirin groups combined, adjusted
  Adjusted Relative Risk (95% CI): 0.70
[1]; Any Adenoma, 81 mg/day
  N with adenoma/N followed: 140/366
  N with adenoma/N followed (percent): (38.3%)
  Relative Crude Risk (95% CI): 0.81
[1]; Any Adenoma, 81 mg/day, listed as aspirin
  N with adenoma/N followed (percent): 38.3%
[1]; Any Adenoma, 81 mg/day, adjusted
  Adjusted Relative Risk (95% CI): 0.83
[1]; Any Adenoma, 325 mg/day
  N with adenoma/N followed: 160/355
  N with adenoma/N followed (percent): (45.1%)
  Relative Crude Risk (95% CI): 0.96
[1]; Any Adenoma, 325 mg/day, listed as aspirin
  N with adenoma/N followed (percent): 45.1%
[1]; Any Adenoma, 325 mg/day, adjusted
  Adjusted Relative Risk (95% CI): 0.95
[1]; [4]
  N with adenoma/N followed (percent): (41.6%)
  Relative Crude Risk (95% CI): 0.88
[1]; Any Adenoma, both aspirin groups combined (81 and 325 mg/day)
  N with adenoma/N followed: 300/721
[1]; Any Adenoma, both aspirin groups combined, adjusted for age, sex, clinical center, length of follow-up, baseline number of lifetime adenoma
  Adjusted Relative Risk (95% CI): 0.89
[1]; Tubular Adenoma, 81 mg/day
  N with adenoma/N followed: 121/366
  N with adenoma/N followed (percent): (33.1%)
  Relative Crude Risk (95% CI): 0.84
[1]; Tubular Adenoma, 81 mg/day, adjusted
  Adjusted Relative Risk (95% CI): 0.87
[1]; Tubular Adenoma, 325 mg/day
  N with adenoma/N followed: 141/355
  N with adenoma/N followed (percent): (39.7%)
  Relative Crude Risk (95% CI): 1.01
[1]; Tubular Adenoma, 325 mg/day, adjusted
  Adjusted Relative Risk (95% CI): 1.00
[1]; [5]
  N with adenoma/N followed: 262/721
  N with adenoma/N followed (percent): (36.3%)
  Relative Crude Risk (95% CI): 0.92
[1]; Tubular Adenoma, both aspirin groups combined, adjusted
  Adjusted Relative Risk (95% CI): 0.93
[1]; both aspirin groups combined, non-significant
  reduction in risk of one or more adenomas: 12%
[1]; patients randomized to the aspirin groups
  incidence of adenomas: significantly lower
[2]; 81 mg Aspirin, N = 377 (Table 2)
  Died, percent: 0.8%
[2]; 81 mg aspirin (N = 377)
  Coronary Revascularization, no of subjects: 3
  Deaths, no of subjects: 3
  Hospitalization, no of subjects: 61
  Myocardial Infarction, no of subjects: 2
  Non-Colorectal Cancer, no of subjects: 14
  Stroke, no of subjects: 2
  Serious Bleeding, Gastrointestinal, no of subjects: 2
  Serious Bleeding, Genitourinary, no of subjects: 6
[2]; 81 mg aspirin group, after review of the medical records
  stroke judged to be hemorrhagic: One
[2]; 325 mg Aspirin, N = 372 (Table 2)
  Died, percent: 1.1%
[2]; 325 mg aspirin (N = 372)
  Coronary Revascularization, no of subjects: 5
  Deaths, no of subjects: 4
  Hospitalization, no of subjects: 57
  Myocardial Infarction, no of subjects: 4
  Non-Colorectal Cancer, no of subjects: 9
  Stroke, no of subjects: 5
  Serious Bleeding, Gastrointestinal, no of subjects: 4
  Serious Bleeding, Genitourinary, no of subjects: 2
[2]; aspirin groups versus placebo, differences compatible with chance
  Hospitalization, cancer and myocardial infarction frequency: somewhat more frequently in the aspirin groups than in placebo
[2]; both aspirin groups together, none in placebo
  patients diagnosed with a stroke (all non-fatal): Seven
